According to patent EP0462935B1, “Enantiomers of 2-tetrahydrofuran derivatives, intermediates therefor and their preparation” (SANDOZ AG, priority 1990, dated 1991):
Where a name gives a salt, the structure may show the parent alone.

Tests used:
[1] = test system: Experimental allergic encephalomyelitis; assay: Experimental allergic encephalomyelitis (EAE test), preventive treatment; format: in vivo, rat; settings: for Animals with total paralysis) % / Animals with total paralysis) No./total: preventive treatment, 25 mg/kg/day p.o., rat; for Animals with total paralysis) No./total: number of animals with total paralysis per total number of rats treated
Description: 1. Experimental allergic encephalomyelitis (EAE test) in the rat; preventive treatment:
[Levine et al., Am. J. Path. 47 (1965) 61; McFarlin et al., J. Immunol. 113 (1974) 712; Borel, Transplant. & Clin. Immunol. 13 (1981) 3]:
Male Wistar rats are injected in the hind paws with 0.1 ml of a mixture of bovine spinal cord and complete Freund's adjuvant. The test compound is administered at dosages of from 5 to 50 mg/kg/day p.o. 5 days a week, commencing on the day of sensitization and continuing for 2 weeks. Onset of EAE in control groups receiving no medication generally commences between 9 to 16 days after sensitization and is marked by symptoms of paralysis in the hind limbs and tail. Test animals are examined daily for symptoms of the disease and disease occurrence is scored according to their severity. Total paralysis means complete involvement of both hind legs and tail. The test animals are kept under observation for a total period of 50 days.

[2] = test system: Experimental allergic encephalomyelitis; assay: Experimental allergic encephalomyelitis (EAE test), therapeutic treatment; format: in vivo, rat
Description: 2. Experimental allergic encephalomyelitis (EEA test) in the rat; therapeutic treatment:
Testing is carried out analogously to that described above with the exception that the administration of the test compound commences on day 7 after sensitization (i.e. immediately prior to appearance of disease symptoms) at dosages of from 5 to 50 mg/kg/day p.o. either daily or every second day and continuing for one week. During the testing period the animals are examined daily for symptoms of the disease and scored as in the previous test method.

[3] = test system: Delayed-type hypersensitivity; assay: Delayed-type hypersensitivity (DTH test) mediated by cloned helper T cells; format: in vivo, mouse; settings: footpad swelling after 24 h
Description: 4. Delayed-type hypersensitivity (DTH test) in the mouse:
Suppression of DTH mediated by cloned helper T cells is tested with mice injected subcutaneously with cloned helper T cells together with the relevant antigen, namely sheep erythrocytes, in one hind footpad and with the same clone plus an unrelated antigen as control in the other footpad. The drugs are administered orally twice, first one day before and again at the time of the cell injection. After 24 h the increase in footpad thickness is measured. Footpad swelling is indicated as percentage compared with the control group (placebo).

L1210 = assay: Tumor cell cytotoxicity test (TCC test); format: cell-based; settings: 72 hours
Description: (§1) 1. Tumor cell cytotoxicity test (TCC test):
(§2) In flat bottom microtiter plates (Nunc Roskieide, Denmark) are placed Abelson 8.1 lymphoma, YAC-1, L1210 or P815 tumor cells in Dulbecco modified Eagle's medium (DMEM) + 10 % fetal calf serum and the tumor cell-containing plates are incubated with 1, 3 and 5 »g of the test compound for a period of 6 to 72 hours. The number of viable tumor cells present in the Abelson 8.1, YAC-1, L1210 and P815 assays is determined by measuring the alkaline phosphatase in the following manner: the tumor cell plates are centrifuged (500 x g) for ten minutes and the supernatant flicked off. Without further washing, 100 »l of buffer containing 20 »l of diethanolamine, 2 »M of MgCl₂·6H₂O, 2.5 »M of p-nitrophenylphosphate and 10 mg Triton X-100 are added. The samples are incubated for 60 minutes at room temperature and the enzymatic reaction is terminated by the addition of 100 »l of 0.5 N NaOH. The absorbance is then measured at […] using a Titertek Multiskan apparatus.
(§3) At an incubation period of 72 hours the following results were obtained: […]

YAC-1 = assay: Tumor cell cytotoxicity test (TCC test); format: cell-based; settings: 72 hours
Description: as §1, §2, §3

Abelson 8.1 lymphoma = assay: Tumor cell cytotoxicity test (TCC test); format: cell-based; settings: 72 hours
Description: as §1, §2, §3

P815 = assay: Tumor cell cytotoxicity test (TCC test); format: cell-based; settings: 72 hours
Description: as §1, §2, §3

Meth A fibrosarcoma = assay: In vivo Meth A fibrosarcoma test; parameters: species or system mouse; settings: for Tumor volume (% of control) day 7: day 7 after tumor implantation; for Survivors (tumor free): ten CBF₁ mice
Description: In vivo Meth A fibrosarcoma test in the mouse:
Ten CBF₁ mice of 10-12 week age are each implanted with 7.3 x 10⁶ Meth A sarcoma cells to serve as control. A second group of ten CBF₁ mice are each implanted with 7.3 x 10⁶ Meth A sarcoma cells and on day one after implant each mouse is treated p.o. with from 5 »g to 50 »g of the test compound per day for a total of twenty or twenty-seven days. Tumor growth and survivors are assayed on days 7, 14, 21 and 28 after tumor implantation.

[4] = test system: Chronic relapsing experimental allergic encephalomyelitis; assay: Chronic relapsing experimental allergic encephalomyelitis (CR-EAE test), therapeutic treatment; format: in vivo, rat; settings: 5 to 50 mg/kg/day p.o. for 16 days starting on day 16; for protective efficacy: during treatment and following discontinuation of drug; for inhibiting the appearance of mild to severe clinical symptoms: for the period of treatment

SMILES	Animals with total paralysis) % [1] [%]	Animals with total paralysis) No./total [1]	Suppression of DTH (%) ([3]; 2 x 40 mg/kg orally)	Suppression of DTH (%) ([3]; 2 x 80 mg/kg orally)	Inhibition with tumor cells (%) L1210 (L1210; 1 »g/ml) [%]	Inhibition with tumor cells (%) L1210 (L1210; 3 »g/ml) [%]	Inhibition with tumor cells (%) L1210 (L1210; 5 »g/ml) [%]	Inhibition with tumor cells (%) YAC-1 (YAC-1; 1 »g/ml) [%]	Inhibition with tumor cells (%) YAC-1 (YAC-1; 3 »g/ml) [%]	Inhibition with tumor cells (%) YAC-1 (YAC-1; 5 »g/ml) [%]	Inhibition with tumor cells (%) Abelson 8.1 (Abelson 8.1 lymphoma; 1 »g/ml) [%]	Inhibition with tumor cells (%) Abelson 8.1 (Abelson 8.1 lymphoma; 3 »g/ml) [%]	Inhibition with tumor cells (%) Abelson 8.1 (Abelson 8.1 lymphoma; 5 »g/ml) [%]	Inhibition with tumor cells (%) P815 (P815; 1 »g/ml) [%]	Inhibition with tumor cells (%) P815 (P815; 3 »g/ml) [%]	Inhibition with tumor cells (%) P815 (P815; 5 »g/ml) [%]	Tumor volume (% of control) day 7 (Meth A fibrosarcoma; 5 »g per mouse per day p.o.)	Tumor volume (% of control) day 14 (Meth A fibrosarcoma; 5 »g per mouse per day p.o.)	Tumor volume (% of control) day 21 (Meth A fibrosarcoma; 5 »g per mouse per day p.o.)	Tumor volume (% of control) day 28 (Meth A fibrosarcoma; 5 »g per mouse per day p.o.)	other results
CCCCCCCCCCCCCCCCCCOCC1(COP(=O)([O-])OCC[N+](C)(C)C)CCCO1 (racemic) [Example 5 of USP 4'673'672, reference compound]	43	3/7	31	88	0	80	91	19	74	91	68	97	98	40	87	95	82 % of control	47 % of control	20 % of control	32 % of control	Animals with EAE) % ([2]; therapeutic treatment from day 7, 25 mg/kg/day p.o., rat): 29%; Animals with EAE) No./total ([2]; therapeutic treatment from day 7, 25 mg/kg/day p.o., rat, number of animals with symptoms of disease per total number of rats treated): 2/7; Survivors (tumor free) (Meth A fibrosarcoma; 5 »g per mouse per day p.o.): 3/10; Tumor volume (% of control) day 7 (Meth A fibrosarcoma; 50 »g per mouse per day p.o.): 76 % of control; Tumor volume (% of control) day 14 (Meth A fibrosarcoma; 50 »g per mouse per day p.o.): 38 % of control; Tumor volume (% of control) day 21 (Meth A fibrosarcoma; 50 »g per mouse per day p.o.): 14 % of control; Tumor volume (% of control) day 28 (Meth A fibrosarcoma; 50 »g per mouse per day p.o.): 21 % of control; Survivors (tumor free) (Meth A fibrosarcoma; 50 »g per mouse per day p.o.): 6/10
CCCCCCCCCCCCCCCCCCOC[C@@]1(COP(=O)([O-])OCC[N+](C)(C)C)CCCO1 [Compound of formula I, (R)-2-[(2-Octadecyloxymethyltetrahydrofuran-2-ylmethoxy)-hydroxyphosphinyloxy]-N,N,N-trimethylethanaminium hydroxide inner salt-4-oxide]	36	5/14	73	88	16	76	87	8	86	96	29	93	95	32	80	97	90 % of control	52 % of control	21 % of control	37 % of control	occurrence of clinical symptoms ([1]; 5 to 50 mg/kg/day p.o. 5 days a week for 2 weeks, versus placebo control groups): substantial reduction of occurrence of clinical symptoms; appearance of EAE disease symptoms ([2]; 5 to 50 mg/kg/day p.o. from day 7 for one week, versus placebo control groups): substantial reduction of appearance of EAE disease symptoms; protective efficacy [4]: effective to fully protect all animals both during treatment and following discontinuation of drug; inhibiting the appearance of mild to severe clinical symptoms [4]: effective; Survivors (tumor free) (Meth A fibrosarcoma; 5 »g per mouse per day p.o.): 2/10; Tumor volume (% of control) day 7 (Meth A fibrosarcoma; 50 »g per mouse per day p.o.): 85 % of control; Tumor volume (% of control) day 14 (Meth A fibrosarcoma; 50 »g per mouse per day p.o.): 53 % of control; Tumor volume (% of control) day 21 (Meth A fibrosarcoma; 50 »g per mouse per day p.o.): 21 % of control; Tumor volume (% of control) day 28 (Meth A fibrosarcoma; 50 »g per mouse per day p.o.): 32 % of control; Survivors (tumor free) (Meth A fibrosarcoma; 50 »g per mouse per day p.o.): 3/10
CCCCCCCCCCCCCCCCCCOC[C@]1(COP(=O)([O-])OCC[N+](C)(C)C)CCCO1 [Enantiomer of the compound of formula I, (S)-2-[(2-Octadecyloxymethyltetrahydrofuran-2-ylmethoxy)-hydroxyphosphinyloxy)-N,N,N-trimethylethanaminium hydroxide inner salt-4-oxide]	86	12/14	16	40	45	92	97	40	78	91	91	98	98	84	93	97	66 % of control	19 % of control	6 % of control	11 % of control	protective efficacy [4]: much less effective protective efficacy during treatment; Survivors (tumor free) (Meth A fibrosarcoma; 5 »g per mouse per day p.o.): 8/10; Survivors (tumor free) (Meth A fibrosarcoma; 5 »g per mouse per day p.o., listed as (S)-isomer): 8 out of 10; Tumor volume (% of control) day 7 (Meth A fibrosarcoma; 50 »g per mouse per day p.o.): 70 % of control; Tumor volume (% of control) day 14 (Meth A fibrosarcoma; 50 »g per mouse per day p.o.): 28 % of control; Tumor volume (% of control) day 21 (Meth A fibrosarcoma; 50 »g per mouse per day p.o.): 8 % of control; Tumor volume (% of control) day 28 (Meth A fibrosarcoma; 50 »g per mouse per day p.o.): 13 % of control; Survivors (tumor free) (Meth A fibrosarcoma; 50 »g per mouse per day p.o.): 8/10
CCCCCCCCCCCCCCCCCCOCC1(COP(=O)([O-])OCC[N+](C)(C)C)CCCO1 (racemic) [compound of Example 5 of USP 4'673'672]																					inhibiting the appearance of mild to severe clinical symptoms [4]: effective
